Assay results: patent US6576662B2, “Compounds having anticancer activity : process for their preparation and pharmaceutical compositions containing them” (Dr. Reddy's Laboratories Limited, priority 2000, dated 2003)
Read-outs that look alike come from different tables or passages of the source.

Experiments:
tumor cell lines = details: cited from earlier work
MCF-7/ADR = test: in vitro anti-cancer screen, Sulforhodamine B method; type: cell-based, human; details: BREAST: MCF-7/ADR, 48 h incubation, read-out: GROWTH INHIBITION (GI 50)
Method: (§1) Each test compound was screened against a battery of cell lines representing eight different types of cancers. In a typical procedure, 1×10^4 cells were seeded into each well of 96 well plate in 100 μL volume of RPMI 1640 medium containing antibiotics and 10% FCS.
(§2) The plates were incubated at 37° C. in presence of CO2. After 24 h, test compounds were evaluated at five 10 fold dilutions ranging from 100 to 0.01 μM. To each test well 100 μL of test compound solution was added and medium with vehicle was added to control wells and the plates were further incubated. After 48 h of incubation, plates were terminated by Sulforhodamine B method.
(§3) The optical density which is proportional to protein mass, is then-read by automated spectrophotometric plate reader at a wavelength of 515 nm.

A498 = test: as above; type: cell-based, human; details: RENAL: A498, 48 h incubation, read-out: GROWTH INHIBITION (GI 50)
Method: as §1, §2, §3

U251 = test: as above; type: cell-based, human; details: CNS: U251, 48 h incubation, read-out: GROWTH INHIBITION (GI 50)
Method: as §1, §2, §3

H522 = test: as above; type: cell-based, human; details: LUNG: H522, 48 h incubation, read-out: GROWTH INHIBITION (GI 50)
Method: as §1, §2, §3

SKOV-3 = test: as above; type: cell-based, human; details: OVARIAN: SKOV-3, 48 h incubation, read-out: GROWTH INHIBITION (GI 50)
Method: as §1, §2, §3

M14 = test: as above; type: cell-based, human; details: MELANOMA: M14; 48 h incubation; read-out: GROWTH INHIBITION (GI 50)
Method: as §1, §2, §3

SW-620 = test: as above; type: cell-based, human; details: COLON: SW-620, 48 h incubation, read-out: GROWTH INHIBITION (GI 50)
Method: as §1, §2, §3

DU145 = test: as above; type: cell-based, human; details: PROSTATE: DU145, 48 h incubation, read-out: GROWTH INHIBITION (GI 50)
Method: as §1, §2, §3

PC-3 = test: as above; type: cell-based; details: Homo sapiens; PROSTATE: PC-3; 48 h incubation; read-out: GROWTH INHIBITION (GI 50)
Method: as §1, §2, §3

PA1 = test: as above; type: cell-based, human; details: Homo sapiens, PA-1; OVARIAN: PA1; 48 h incubation; read-out: GROWTH INHIBITION (GI 50)
Method: as §1, §2, §3

MCF7 = test: as above; type: cell-based, human; details: Homo sapiens; BREAST: MCF7; 48 h incubation; read-out: GROWTH INHIBITION (GI 50)
Method: as §1, §2, §3

UACC62 = test: as above; type: cell-based, human; details: Homo sapiens, UACC-62; MELANOMA: UACC62; 48 h incubation; read-out: GROWTH INHIBITION (GI 50)
Method: as §1, §2, §3

HT29 = test: as above; type: cell-based, human; details: Homo sapiens, HT-29; COLON: HT29; 48 h incubation; read-out: GROWTH INHIBITION (GI 50)
Method: as §1, §2, §3

Human lymphocytes = test: Lymphocyte proliferation, tritiated thymidine incorporation; type: cell-based; details: Concentration 1 μM; human lymphocytes with Phytohemagglutitin A
Method: Human lymphocytes were isolated from whole blood by using Ficoll Hypaque Plus (Amersham). On day one, 1 million lymphocytes were seeded into each well of 96 well plate in 100 μL volume of RPMI 1640 medium containing 10% FCS and Phytohemagglutitin A at 1 μg/well concentration. Plates were incubated at 37° C. in CO2 incubator for 24 h. Test compounds at various concentrations were added to test wells and only medium with vehicle was added to control wells. After 48 h of incubation […] of tritiated thymidine was added to each well. After 24 h of thymidine addition the cells were harvested and the incorporated radioactivity was determined. Stimulation Index (SI) was calculated using the formula, [formula]
A^T=Average CPM of treated wells,
A^C=Average CPM of control wells.

OVCAR = test: in vitro anti-cancer screen, Sulforhodamine B method; type: cell-based; details: Homo sapiens; OVARIAN: OVCAR; 48 h incubation; read-out: GROWTH INHIBITION (GI 50)
Method: as §1, §2, §3

ACHN = test: as above; type: cell-based; details: Homo sapiens; RENAL: ACHN; 48 h incubation; read-out: GROWTH INHIBITION (GI 50)
Method: as §1, §2, §3

GI50 (PC-3) | GI50 (MCF-7/ADR; Homo sapiens, NCI/ADR-RES) | GI50 (U251; Homo sapiens, U-251) | GI50 (H522; Homo sapiens, NCI-H522) | GI50 (PA1) | GI50 (MCF7) | GI50 (UACC62) | GI50 (SKOV-3; Homo sapiens, SK-OV-3) | GI50 (SW-620; Homo sapiens) | GI50 (HT29) | GI50 (DU145; Homo sapiens, DU-145) | melting point | SMILES | GI50 (MCF-7/ADR) | GI50 (A498) | GI50 (U251) | GI50 (H522) | GI50 (SKOV-3) | GI50 (M14) | GI50 (SW-620) | GI50 (DU145) | further results
– | – | – | – | – | – | – | – | – | – | – | – | C=C1CCC2[C@](C)(CC[C@@H](O)[C@@]2(C)CO)C1/C=C/C1=CCOC1=O (stereo partly shown) [14-deoxy-11,12-didehydroandrographolide] | – | – | – | – | – | – | – | – | cytotoxic activity (tumor cell lines): no cytotoxic activity
– | – | – | – | – | – | – | – | – | – | – | – | C=C1CCC2C(C)(COC(C)=O)C(OC(C)=O)CCC2(C)C1CC(NCc1ccc(OC)cc1)C1=CCOC1=O (stereo not shown) [Example 3, 3,19-Diacetyl-14-deoxy-12-(N-4-methoxybenzylamino)andrographolide] | 5 µM | 180 nM | 8000 nM | 0.18 µM | 0.15 µM | 5.5 µM | 3.5 µM | 8 µM | –
2500 nM | 2.5 µM | 70 nM | 6 µM | 3000 nM | 3 µM | 3.5 µM | 4 µM | 2.5 µM | 10 µM | 10 µM | 192 °C | C=C1CCC2[C@](C)(CO)[C@H](O)CC[C@]2(C)[C@H]1CC(NCc1ccccc1)C1=CCOC1=O (stereo partly shown) [Example 18, 12-(N-Benzylamino)-14-deoxy andrographolide] | – | – | – | – | – | – | – | – | GI50 (A498; Homo sapiens): 2500 nM; Stimulation Index (SI) (Human lymphocytes): 64
2000 nM | 2 µM | 3000 nM | 20 µM | 1400 nM | 3 µM | 3 µM | 4 µM | 3 µM | 3 µM | 12 µM | 171.6 to 171.9 °C | C=C1CCC2[C@]3(C)COC(C)(c4ccccc4)OC3CC[C@]2(C)[C@H]1CC(NC(Cc1ccccc1)C(=O)OC)C1=CCOC1=O (stereo partly shown) [Example 22, 14-Deoxy-12-(O-methylphenylalanino)-3,19-O-(1-phenylethylidene)andrographolide] | – | – | – | – | – | – | – | – | GI50 (OVCAR): 1400 nM; GI50 (ACHN): 14 µM
2000 nM | 2 µM | 2000 nM | 15 µM | 1000 nM | 4 µM | 2 µM | 4 µM | 2 µM | 3 µM | 11 µM | 141 to 143 °C | C=C1CCC2[C@]3(C)COC(C)(c4ccccc4)O[C@@H]3CC[C@]2(C)[C@H]1CC(C1=CCOC1=O)N1CCCC1C(=O)OC (stereo partly shown) [Example 23, 14-Deoxy-12-(O-methylprolino)-3,19-O-(1-phenylethylidene)andrographolide] | – | – | – | – | – | – | – | – | GI50 (OVCAR): 1000 nM; GI50 (ACHN): 13 µM
3000 nM | 4 µM | 2000 nM | 5 µM | 3000 nM | 4 µM | 6 µM | 7 µM | 3.5 µM | 10 µM | 15 µM | 155 °C | C=C1CCC2[C@](C)(CO)[C@H](O)CC[C@]2(C)[C@H]1CC(C1=CCOC1=O)n1cc(F)c(=O)[nH]c1=O (stereo partly shown) [Example 51, 14-Deoxy-12-[N^1-(5-fluorouracil)]andrographolide] | – | – | – | – | – | – | – | – | GI50 (A498; Homo sapiens): 2500 nM
– | – | – | – | – | – | – | – | – | – | – | – | C=C1CCC2C(C)(COC(C)=O)C(OC(C)=O)CCC2(C)C1CC(Sc1ccccc1)C1=CCOC1=O (stereo not shown) [Example 58, 3,19-Diacetyl-14-deoxy-12-phenylthio andrographolide] | 6.5 µM | 200 nM | 4000 nM | 7 µM | 6 µM | 4 µM | 5 µM | 7.5 µM | Stimulation Index (SI) (Human lymphocytes): 99
– | – | – | – | – | – | – | – | – | – | – | – | CC(=O)OCC1(C)C(OC(C)=O)CCC2(C)C(CC(Sc3ccccc3)C3=CCOC3=O)C3(CCC12)CO3 (stereo not shown) [Example 70, 3,19-Diacetyl-14-deoxy-8,17-epoxy-12-phenylthio andrographolide] | 8 µM | 4000 nM | 7000 nM | 7 µM | 4 µM | 3 µM | 4 µM | 2 µM | –
– | – | – | – | – | – | – | – | – | – | – | – | C=C1CC[C@@H]2[C@](C)(CO[C@@H]3O[C@H](CO)[C@@H](O)[C@H](O)[C@H]3O)CCC[C@@]2(C)[C@@H]1CCC1=CCOC1=O [neoandrographolide] | – | – | – | – | – | – | – | – | cytotoxic activity (tumor cell lines): no cytotoxic activity
